The text below walks through data of patent US8530492B2, “Oligomer-protein tyrosine kinase inhibitor conjugates” (Nektar Therapeutics, priority 2009, dated 2013).

The structures appear in SMILES notation.

The subject of this series is Caco-2 cells. Description: Caco-2 permeability (bi-directional; pH 7.4/pH 7.4). It counts as in vitro ADME, human. The following applies: Caco-2, 10 μM, 120 minutes. The method, then: Caco-2 cells are used as an in vitro model of the human intestinal epithelium and permit assessment of the intestinal permeability of potential drugs. Test compound is added to either the apical or basolateral side of a confluent monolayer of Caco-2 cells and permeability is measured by monitoring the appearance of the test compound on the opposite side of the membrane using LC-MS/MS. Apparent permeability (Papp) coefficients, efflux ratio for the test compound and recovery values were determined.
To measure the permeability of test compound in the apical to basolateral (A-B) and basolateral to apical (B-A) direction across Caco-2 cells.
Caco-2 cells obtained from the ATCC are used between passage numbers 40-60. Cells are seeded on to Millipore Multiscreen Caco-2 plates at 1×10^5 cells/cm^2. They are cultured for 20 days in DMEM and media is changed every two or three days. On day 20 the permeability study is performed.
On day 20, the monolayers are prepared by rinsing both basolateral and apical surfaces twice with HBSS at 37° C. Cells are then incubated with HBSS in both apical and basolateral compartments for 40 min to stabilize physiological parameters. HBSS is then removed from the apical compartment and replaced with test compound dosing solutions. […] The fluorescent integrity marker lucifer yellow is also included in the dosing solution. Analytical standards are made from dosing solutions. The apical compartment inserts are then placed into ‘companion’ plates containing fresh HBSS. For basolateral to apical (B-A) permeability determination the experiment is initiated by replacing buffer in the inserts then placing them in companion plates containing dosing solutions. At 120 minutes the companion plate is removed and apical and basolateral samples diluted for analysis by LC-MS/MS. Test compound permeability was assessed in duplicate. On each plate, compounds of known permeability characteristics were run as controls.
Test and control compounds were quantified by LC-MS/MS cassette analysis using a 5-point calibration with appropriate dilution of the samples. Cyprotex generic analytical conditions were used. The starting concentration (C0) and experimental recovery were calculated from both apical and basolateral compartment concentrations.
The integrity of the monolayers throughout the experiment was checked by monitoring lucifer yellow permeation using fluorimetric analysis. Lucifer yellow permeation is low if monolayers have not been damaged. […] If lucifer yellow Papp values are above QC limits in both replicate wells for a test compound, the compound was re-tested.
Data Analysis: The permeability coefficient for each compound (Papp) is calculated from the following equation:
[formula] wherein dQ/dt is the rate of permeation of the drug across the cells, C0 is the donor compartment concentration at time zero and A is the area of the cell monolayer. C0 is obtained from analysis of donor and receiver compartments at the end of the incubation period. It is assumed that all of the test compound measured after 120 minutes incubation was initially present in the donor compartment at 0 minutes. An efflux ratio (ER) is derived as follows:
Talinolol (a known P-gp substrate) is also included as a control compound to assess whether functional P-gp is present in the Caco-2 cell monolayer.
In general terms: Passage across Caco-2 layers is used to estimate intestinal permeability.

For the compound `COCCOCCOCCOCCOCCOCCOCCNCc1ccc(C(=O)Nc2ccc(C)c(Nc3nccc(-c4cccnc4)n3)c2)cc1`, the Permeability (apparent permeability, Papp (A-B)) turned out to be 0.04 ± 0.01 ×10⁻⁶ cm/s.

`COCCOCCOCCNCc1ccc(C(=O)Nc2ccc(C)c(Nc3nccc(-c4cccnc4)n3)c2)cc1` [mPEG3-N-Imatinib]: the Permeability (apparent permeability, Papp (A-B)) is 0.6 ± 0.07 ×10⁻⁶ cm/s. As for `COCCOCCOCCN1CCN(Cc2ccc(C(=O)Nc3ccc(C)c(Nc4nccc(-c5cccnc5)n4)c3)cc2)CC1` [mPEG3-N′-Imatinib], the Permeability (apparent permeability, Papp (A-B)) stood at 4 ± 0.8 ×10⁻⁶ cm/s. With `COCCOCCOCCOCCOCCNCc1ccc(C(=O)Nc2ccc(C)c(Nc3nccc(-c4cccnc4)n3)c2)cc1` [mPEG5-N-Imatinib], the Permeability (apparent permeability, Papp (A-B)) is 0.05 ± 0.02 ×10⁻⁶ cm/s. Consider `COCCOCCOCCOCCOCCN1CCN(Cc2ccc(C(=O)Nc3ccc(C)c(Nc4nccc(-c5cccnc5)n4)c3)cc2)CC1` [mPEG5-N′-Imatinib], for which the Permeability (apparent permeability, Papp (A-B)) was determined as 1 ± 0.2 ×10⁻⁶ cm/s.

As for `COCCOCCOCCOCCOCCOCCOCCN1CCN(Cc2ccc(C(=O)Nc3ccc(C)c(Nc4nccc(-c5cccnc5)n4)c3)cc2)CC1` [mPEG7-N′-Imatinib], the Permeability (apparent permeability, Papp (A-B)) was 0.3 ± 0.01 ×10⁻⁶ cm/s.

In the case of `COCCOCCOCCOCCOCCOCCOCCOCCOCCNCc1ccc(C(=O)Nc2ccc(C)c(Nc3nccc(-c4cccnc4)n3)c2)cc1` [mPEG9-N-Imatinib], the Permeability (apparent permeability, Papp (A-B)) was 0.01 ± 0.004 ×10⁻⁶ cm/s. Consider `COCCOCCOCCOCCOCCOCCOCCOCCOCCN1CCN(Cc2ccc(C(=O)Nc3ccc(C)c(Nc4nccc(-c5cccnc5)n4)c3)cc2)CC1` [mPEG9-N′-Imatinib], for which the Permeability (apparent permeability, Papp (A-B)) was found to be 0.05 ± 0.02 ×10⁻⁶ cm/s.
